From patent US7056910B2, “1,4,5.6-tetrahydroimidazo[4,5-d]diazepine derivatives or salts thereof” (Astellas Pharma Inc., priority 2000, dated 2006) come the findings set out here.

Counter-ions that a name gives are not always drawn.

In series [1] the target is T1, arginine vasopressin V1A receptor (Rattus norvegicus, UniProt P30560).
T1 construct: A rat hepatic membrane specimen was prepared; from tissue; host or cells: rat liver (hepatic membrane specimen)
Put plainly: V1A receptor binding assay ([3H]-vasopressin, rat hepatic membrane specimen). As to conditions: [3H]-vasopressin 0.5 nM, 25° C., 60 minutes, read-out: Binding activity against arginine vasopressin V1A receptor (pki) (converted). The protocol: (1) V1A Receptor Binding Assay:
A rat hepatic membrane specimen was prepared according to the method of Nakamura, et al. (Journal of Biological Chemistry, Vol. 258, No. 15, pp. 9283–9289, 1983). The hepatic membrane specimen (30 μg) was incubated at 25° C. for 60 minutes in a total amount of 250 μL of a 50 mM TRIS-HCl buffer solution (pH: 7.4) containing 10 mM magnesium chloride and 0.1% bovine serum albumin (BSA), together with [^3H]-Arg-vasopressin (hereinafter simply referred to as “[^3H]-vasopressin”) (0.5 nM, specific activity: 75 Ci/mmol) and a test compound (from 10^−10 to 10^−6 M). Thereafter, liberated [^3H]-vasopressin and receptor-binding [^3H]-vasopressin were separated from each other by using a cell harvester, and the receptor-binding [^3H]-vasopressin was adsorbed on a UniFilter plate, GF/B glass filter. After thoroughly drying, the receptor-binding [^3H]-vasopressin was mixed with a microplate scintillation cocktail, the amount of the receptor-binding [^3H]-vasopressin was measured by using TopCount, and an inhibition rate was calculated according to the following equation. Inhibition rate (%)=[100−(C1−B1)]/(C0−B1)×100 C1: An amount of [^3H]-vasopressin binding to the membrane specimen when treating the receptor membrane specimen in the co-presence of the test compound having a known concentration and [^3H]-vasopressin C0: An amount of [^3H]-vasopressin binding to the membrane specimen when treating the receptor membrane specimen in the presence of [^3H]-vasopressin and in the absence of the test compound B1: An amount of [^3H]-vasopressin binding to the membrane specimen when treating the receptor membrane specimen in the co-presence of [^3H]-vasopressin and an excessive amount of vasopressin (10^−6 M)
According to the foregoing equation, a concentration of the test compound at the inhibition rate of 50% (IC50 value) was calculated, from which was then calculated an affinity of the test compound with the receptor, i.e., a dissociation constant (Ki), according to the following equation. Ki=IC50/(1+[L]/Kd) [L]: A concentration of [^3H]-vasopressin Kd: A dissociation constant of [^3H]-vasopressin against the receptor as determined by the saturation binding assay
A logarithm of the Ki value as calculated according to the foregoing equation was taken, and its negative value was defined as a pKi value.

Series [2] deals with T2, arginine vasopressin V2 receptor (Rattus norvegicus, UniProt Q00788).
T2 construct: A rat renal medullary membrane specimen was prepared; from tissue; host or cells: rat renal medulla (membrane specimen)
T2 sequence (Q00788 whole entry): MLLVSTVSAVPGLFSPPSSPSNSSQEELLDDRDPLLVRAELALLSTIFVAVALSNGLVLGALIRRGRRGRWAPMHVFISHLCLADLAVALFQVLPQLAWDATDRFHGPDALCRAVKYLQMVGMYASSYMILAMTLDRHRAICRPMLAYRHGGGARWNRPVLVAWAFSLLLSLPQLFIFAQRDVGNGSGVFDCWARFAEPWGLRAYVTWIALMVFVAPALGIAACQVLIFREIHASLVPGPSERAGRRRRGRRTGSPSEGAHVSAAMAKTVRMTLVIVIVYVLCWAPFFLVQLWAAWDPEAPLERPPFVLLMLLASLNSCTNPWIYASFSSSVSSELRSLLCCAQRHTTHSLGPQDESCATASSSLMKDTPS
Description: V2 receptor binding assay ([3H]-vasopressin, rat renal medullary membrane specimen). As to conditions: [3H]-vasopressin 0.5 nM, read-out: Binding activity against arginine vasopressin V2 receptor (pKi) (converted). The protocol: (2) V2 Receptor Binding Assay:
A rat renal medullary membrane specimen was prepared according to the method of Cambell, et al. (Journal of Biological Chemistry, Vol. 247, No. 19, pp. 6167–6175, 1972). The rat renal medullary membrane specimen (200 μg) was treated together with [^3H]-vasopressin (0.5 nM, specific activity: 75 Ci/mmol) and a test compound (from 10^−10 to 10^−6 M) in the same manner as in the foregoing V1A receptor binding assay, and the same measurement was carried out to determine a pKi value.

Series [3] concerns the target drug metabolizing enzyme CYP3A4 (Homo sapiens, UniProt P08684). Put plainly: Cytochrome P450 (3A4) inhibition assay (BFC substrate, fluorescence). Format: in vitro ADME. To be noted: BFC 5×10^−5 M substrate, 37° C., 30 minutes; read-out: Inhibition activity against drug metabolizing enzyme CYP3A4 (IC50/μM). The protocol: (3) Cytochrome P450 (3A4) Inhibition Assay:
An assay was carried out according to the method of Crespi, et al. (Analytical Biochemistry, 248, 188–190, 1997). Using a 96-well plate, BFC (5×10^−5 M) as a substrate, a test compound (from 9.1×10^−8 to 2×10^−5 M), and an enzyme (10^−8 M) were incubated at 37° C. for 30 minutes in a total amount of 100 μL of a 20 mM phosphoric acid buffer solution (pH: 7.4) containing 1.3 mM NADP+, 3.3 mM glucose-6-pharpahte, 3.3 mM magnesium chloride, and 0.4 Units/mL glucose-6-phosphate dehydrogenase. Thereafter, a 100 mM TRIS buffer solution containing 80% acetonitrile was added to stop the reaction, and a fluorescent intensity (excitation wavelength: 409 nm, fluorescent wavelength: 530 nm) was measured by a fluorescent plate reader. An inhibition rate was calculated according to the following equation, and a concentration of the test compound at the inhibition rate of 50% (IC50 value) was determined. Inhibition rate (%)=[100−(C1−B1)]/(C0−B1)×100 C1: A fluorescent intensity in the presence of the test compound having a known concentration, enzyme and the substrate C0: A fluorescent intensity in the presence of enzyme and the substrate and in the absence of the test compound B1: A fluorescent intensity of the blank well

Chain of drug metabolizing enzyme CYP3A4 (P08684 whole entry): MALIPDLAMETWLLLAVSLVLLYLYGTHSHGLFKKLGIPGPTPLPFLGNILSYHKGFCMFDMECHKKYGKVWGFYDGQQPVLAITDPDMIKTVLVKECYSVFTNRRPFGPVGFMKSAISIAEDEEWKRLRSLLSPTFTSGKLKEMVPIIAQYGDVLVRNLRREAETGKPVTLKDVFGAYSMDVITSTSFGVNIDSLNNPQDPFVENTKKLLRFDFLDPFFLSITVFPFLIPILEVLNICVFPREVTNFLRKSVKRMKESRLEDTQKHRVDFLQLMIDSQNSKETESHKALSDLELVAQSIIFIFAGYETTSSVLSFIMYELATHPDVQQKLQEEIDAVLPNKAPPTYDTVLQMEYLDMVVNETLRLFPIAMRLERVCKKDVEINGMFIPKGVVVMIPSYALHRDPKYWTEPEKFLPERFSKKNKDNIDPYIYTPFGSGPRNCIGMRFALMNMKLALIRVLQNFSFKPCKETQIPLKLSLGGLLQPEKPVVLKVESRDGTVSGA
T1 sequence (P30560 whole entry): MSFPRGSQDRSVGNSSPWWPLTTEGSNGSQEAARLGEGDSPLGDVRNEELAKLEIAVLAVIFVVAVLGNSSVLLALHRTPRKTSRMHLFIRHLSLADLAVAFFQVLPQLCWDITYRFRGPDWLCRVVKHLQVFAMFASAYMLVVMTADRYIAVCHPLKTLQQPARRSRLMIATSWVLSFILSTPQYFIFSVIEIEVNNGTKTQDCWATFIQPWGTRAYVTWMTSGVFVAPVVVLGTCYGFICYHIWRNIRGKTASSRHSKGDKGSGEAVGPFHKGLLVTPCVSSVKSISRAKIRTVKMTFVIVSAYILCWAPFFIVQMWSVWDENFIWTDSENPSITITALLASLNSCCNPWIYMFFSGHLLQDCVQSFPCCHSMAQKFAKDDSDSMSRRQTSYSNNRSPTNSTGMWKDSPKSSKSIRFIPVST

With `O=C(Nc1ccc(C(=O)N2CCc3nc(-c4ccccn4)[nH]c3-c3ccccc32)cc1)c1ccccc1-c1ccccc1` [Example 6, N-{4-[2-(2-Pyridyl)-1,4,5,6-tetrahydroimidazo[4,5-d][1]benzazepine-6-carbonyl]phenyl}biphenyl-2-carboxamide], the melting point (as a rule, the temperature, or range, at which the solid turns liquid) is 240 to 242 °C.

For `O=C(Nc1ccc(C(=O)N2CCc3nc(C4CC4)[nH]c3-c3ccccc32)cc1)c1ccccc1-c1ccccc1` [Control compound 2, N-[4(2-Cyclopropyl-1,4,5,6-tetrahydroimidazo[4,5-d] [1]benzazepine-6-carbonyl)phenyl]biphenyl-2-carboxamide hydrochloride, reference compound], the Ki in series [1] is 1.23 nM; in series [2] it was 1.05 nM. Moreover, the IC50 in series [3] stood at 0.43 µM.

For `O=C(Nc1ccc(C(=O)N2CCc3nc(Cc4ccccc4)[nH]c3-c3ccccc32)cc1)c1ccccc1-c1ccccc1` [Control compound 1, N-[4-(2-Benzyl-1,4,5,6-tetrahydroimidazo[4 5-d] [1]benzazepine-6-carbonyl)phenyl]biphenyl-2-carboxamide hydrochloride, reference compound], the Ki is 7.76 nM in series [1] and 8.51 nM in series [2]. Further, the IC50 in series [3] came out at 0.21 µM.

For the molecule `O=C(Nc1ccc(C(=O)N2CCc3nc(-c4ccccn4)[nH]c3-c3ccccc32)nc1)c1ccccc1-c1ccccc1` [Example 11, N-{6-[2-(2-pyridyl)-1,4,5,6-tetrahydroimidazo[4,5-d][1]benzazepine-6-carbonyl]-3-pyridyl}biphenyl-2-carboxamide], the Ki in series [1] was 1.95 nM; in series [2], 12.3 nM. Besides, the IC50 in series [3] worked out at 2 µM.

Consider `O=C(Nc1ccc(C(=O)N2CCc3nc(-c4ccccn4)[nH]c3-c3ccccc32)cc1)c1ccccc1-c1ccccc1` [Example 1, N-{4-[2-(2-Pyridyl)-1,4,5,6-tetrahydroimidazo[4,5-d][1]benzazepine-6-carbonyl]phenyl}biphenyl-2-carboxamide hydrochloride], for which the figures for the Ki in series [1] and in series [2] were 2.82 nM and 6.03 nM, respectively. Moreover, the IC50 in series [3] stood at 7.82 µM.

Turning to `O=C(Nc1ccc(C(=O)N2CCc3nc(-c4ccccn4)[nH]c3-c3ccccc32)cc1)c1ccccc1-c1ccccc1F` [Example 9, 2′-fluoro-N-{4-[2-(2-pyridyl)-1,4,5,6-tetrahydroimidazo[4,5-d][1]benzazepine-6-carbonyl]phenyl}biphenyl-2-carboxamide], the results for the Ki in series [1] and in series [2] were 3.8 nM and 10.5 nM, respectively. Also, in series [3], the IC50 came to 2.4 µM.

In the case of `O=C(Nc1ccc(C(=O)N2CCc3nc(-c4ccccn4)[nH]c3-c3ccccc32)cc1O)c1ccccc1-c1ccccc1` [Example 12, N-{2-Hydroxy-4-[2-(2-pyridyl)-1,4,5,6-tetrahydroimidazo[4,5-d][1]-benzazepine-6-carbonyl]phenyl}biphenyl-2-carboxamide hydrochloride], the figures for the Ki in series [1] and in series [2] were 7.59 nM and 28.8 nM, respectively. Moreover, the IC50 in series [3] came to 5.9 µM.
